The values that follow come from patent publication US6953812B2, “Glucagon antagonists/inverse agonists” (Novo Nordisk, Inc., priority 2000, dated 2005).

As usually defined, the pIC50 is the IC50 on a negative log10 scale, so that one unit is a factor of ten.

pIC50: −log10 of the molar value.

One experiment deals with T1, human glucagon receptor (Homo sapiens, UniProt P47871).
T1 construct: expressed in transfected cells; host or cells: BHK (baby hamster kidney) cells, membrane preparation
The experiment is described as follows: Glucagon Binding Assay (II). To be noted: membranes of BHK cells transfected with human glucagon receptor, 125I-glucagon, SPA; read-out: Glu Bd Assay (II) IC50. The procedure: Glucagon Binding Assay (II)
BHK (baby hamster kidney cell line) cells are transfected with the human glucagon receptor and a membrane preparation of the cells is prepared.
All steps in the membrane preparation are kept on ice or performed at 4° C. BHK cells are harvested and centrifuged. The pellet is resuspended in homogenisation buffer (25 mM HEPES, pH=7.4, 2.5 mM CaCl2, 1.0 mM MgCl2, 250 mg/L bacitracin, 0.1 mM Pefabloc), homogenised 2×10 sec using Polytron 10-35 homogenizer (Kinematica) and added the same amount of homogenisation buffer as used for resuspension. After centrifugation (15 min at 2000×g) the supernatant is transferred to cold centrifuge tubes and centrifuged for 45 min at 40.000×g. The pellet is resuspended in homogenisation buffer, homogenised 2×10 sec (Polytron) and additional homogenisation buffer is added. The suspension is centrifuged for 45 min at 40.000×g and the pellet is resuspended in resuspension buffer (25 mM HEPES, pH=7.4, 2.5 mM CaCl2, 1.0 mM MgCl2) and homogenised 2×10 sec. (Polytron). […] Stabilisation buffer (25 mM HEPES, pH=7.4, 2.5 mM CaCl2, 1.0 mM MgCl2, 1% bovine serum albumin, 500 mg/L bacitracin, 2.5 M sucrose) is added and the membrane preparation is stored at −80° C.
The glucagon binding assay is carried out in opti plates (Polystyrene Microplates, Packard). 50 μL assay buffer (25 mM HEPES, pH=7.5, 2.5 mM CaCl2, 1.0 mM MgCl2, 0.003% Tween-20, 0.005% bacitracin, 0.05% sodium azide) and 5 μL glucagon or test compound (in DMSO) are added to each well. […] Finally 50 μL WGA beads containing 1 mg beads are transferred to the well. The opti plates are incubated for 4 hours on a shaker and then settled for 8-48 hours. The opti plates are counted in a Topcounter. Non-specific binding is determined with 500 nM of glucagon.

A further experiment addresses T2, human GIP receptor (Homo sapiens, UniProt P48546).
T2 construct: expressed in transfected cells; host or cells: BHK (baby hamster kidney) cells, membrane preparation
T2 sequence (P48546 22-466): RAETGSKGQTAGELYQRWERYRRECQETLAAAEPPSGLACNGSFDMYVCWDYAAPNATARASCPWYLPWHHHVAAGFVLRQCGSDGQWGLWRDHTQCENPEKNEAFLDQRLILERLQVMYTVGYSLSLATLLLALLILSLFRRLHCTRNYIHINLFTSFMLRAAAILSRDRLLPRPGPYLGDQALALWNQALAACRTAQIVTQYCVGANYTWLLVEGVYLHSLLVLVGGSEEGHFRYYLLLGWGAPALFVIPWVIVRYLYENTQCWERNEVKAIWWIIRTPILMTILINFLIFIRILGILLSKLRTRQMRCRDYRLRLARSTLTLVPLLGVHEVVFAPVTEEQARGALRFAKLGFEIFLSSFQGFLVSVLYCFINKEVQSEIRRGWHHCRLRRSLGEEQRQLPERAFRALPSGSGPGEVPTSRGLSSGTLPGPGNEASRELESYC
The experiment is described as follows: GIP Binding Assay. To be noted: membranes of BHK cells transfected with human GIP receptor, 125I-GIP, SPA; read-out: GIP Bd Assay IC50. As for the experimental part:
BHK (baby hamster kidney cell line) cells are transfected with the human GIP receptor and a membrane preparation of the cells is prepared.
All steps in the membrane preparation are kept on ice or performed at 4° C. BHK cells are harvested and centrifuged. The pellet is resuspended in homogenisation buffer (25 mM) HEPES, pH=7.4, 2.5 mM CaCl2, 1.0 mM MgCl2, 250 mg/L bacitracin, 0.1 mM Pefabloc), homogenised 2×10 sec using Polytron 10-35 homogenizer (Kinematica) and added the same amount of homogenisation buffer as used for resuspension. After centrifugation (15 min at 2000×g) the supernatant is transferred to cold centrifuge tubes and centrifuged for 45 min at 40.000×g. The pellet is resuspended in homogenisation buffer, homogenised 2×10 sec (Polytron) and additional homogenisation buffer is added. The suspension is centrifuged for 45 min at 40.000×g and the pellet is resuspended in resuspension buffer (25 mM HEPES, pH=7.4, 2.5 mM CaCl2, 1.0 mM MgCl2) and homogenised 2×10 sec. (Polytron). […] Stabilisation buffer (25 mM HEPES, pH=7.4, 2.5 mM CaCl2, 1.0 mM MgCl2, 1% bovine serum albumin, 500 mg/L bacitracin, 2.5 M sucrose) is added and the membrane preparation is stored at −80° C.
The GIP binding assay is carried out in opti plates (Polystyrene Microplates, Packard). 50 μL assay buffer (25 mM HEPES, pH=7.5, 2.5 mM CaCl2, 1.0 mM MgCl2, 0.003% Tween-20, 0.005% bacitracin, 0.05% sodium azide) and 5 μL GIP or test compound (in DMSO) are added to each well. […] Finally 50 μL WGA beads containing 1 mg beads are transferred to the well. The opti plates are incubated for 3.5 hours on a shaker and then settled for 8-48 hours. The opti plates are counted in a Top-counter. Non-specific binding is determined with 500 nM of GIP.

T1 sequence (P47871 26-477): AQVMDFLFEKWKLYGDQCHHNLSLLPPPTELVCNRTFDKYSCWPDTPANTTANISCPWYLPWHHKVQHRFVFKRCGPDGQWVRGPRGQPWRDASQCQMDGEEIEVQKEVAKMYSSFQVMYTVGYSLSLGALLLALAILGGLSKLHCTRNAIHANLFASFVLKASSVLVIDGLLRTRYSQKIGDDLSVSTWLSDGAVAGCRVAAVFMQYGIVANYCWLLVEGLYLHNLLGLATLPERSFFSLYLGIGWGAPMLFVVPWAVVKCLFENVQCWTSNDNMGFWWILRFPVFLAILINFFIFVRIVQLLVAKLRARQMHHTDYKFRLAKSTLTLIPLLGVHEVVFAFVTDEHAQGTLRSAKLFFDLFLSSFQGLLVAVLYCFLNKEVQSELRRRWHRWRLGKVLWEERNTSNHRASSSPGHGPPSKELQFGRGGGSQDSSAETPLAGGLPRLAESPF

Turning to `O=C(NC[C@@H](O)C(=O)O)c1ccc(CN(C(=O)Cc2ccc(-c3ccccc3)cc2)c2ccc(C3CCCCC3)cc2)cc1` [Example 70, (R)-3-(4-{[(Biphenyl-4-ylacetyl)-(4-cyclohexylphenyl)amino]methyl}benzoylamino)-2-hydroxypropionic acid], the negative logarithm of the IC50 (pIC50) on human glucagon receptor is 6.13; on human GIP receptor, under 5.52.

`O=C(NC[C@@H](O)C(=O)O)c1ccc(CN(C(=O)Nc2cc(F)cc(F)c2)c2ccc(C3CCCCC3)cc2)cc1` [Example 55, (R)-3-{4-[1-(4-Cyclohexylphenyl)-3-(3,5-difluorophenyl)ureidomethyl]benzoylamino}-2-hydroxypropionic acid]: the negative logarithm of the IC50 (pIC50) is 7.30 at human glucagon receptor and 6.37 on human GIP receptor.

With `O=C(NC[C@@H](O)C(=O)O)c1ccc(CN(C(=O)Nc2cccc(Br)c2)c2ccc(C3CCCCC3)cc2)cc1` [Example 3, (R)-3-{4-[3-(3-Bromophenyl)-1-(4-cyclohexylphenyl)ureidomethyl]benzoylamino}-2-hydroxypropionic acid], the values for the pIC50 on human glucagon receptor and at human GIP receptor were 7.74 and 6.19, respectively.

With `O=C(NC[C@@H](O)C(=O)O)c1ccc(CN(C(=O)CCc2cc(C(F)(F)F)cc(C(F)(F)F)c2)c2ccc(C3CCCCC3)cc2)cc1` [Example 72, (R)-3-(4-{[(3-(3,5-Bis(trifluoromethyl)phenyl)propionyl)-(4-cyclohexylphenyl)amino]methyl}benzoylamino)-2-hydroxypropionic acid], the pIC50 at human glucagon receptor was 6.27; on human GIP receptor, under 5.52.

Take `Cc1cc(NC(=O)N(Cc2ccc(C(=O)NC[C@@H](O)C(=O)O)cc2)[C@H]2CC[C@H](C(C)(C)C)CC2)cc(C(F)(F)F)c1` [Example 15, Trans-(R)-3-{4-[3-(3-methyl-5-trifluoromethylphenyl)-1-(4-tert-butylcyclohexyl)ureidomethyl]benzoylamino}-2-hydroxypropionic acid]: the negative logarithm of the IC50 (pIC50) at human glucagon receptor was 7.46; at human GIP receptor it was 6.40.

In the case of `O=C(NC[C@@H](O)C(=O)O)c1ccc(CN(C(=O)Nc2ccc(F)c(F)c2)c2ccc(C3CCCCC3)cc2)cc1` [Example 47, (R)-3-{4-[1-(4-Cyclohexylphenyl)-3-(3,4-difluorophenyl)ureidomethyl]benzoylamino}-2-hydroxypropionic acid], the negative logarithm of the IC50 (pIC50) on human glucagon receptor was 7.19; on human GIP receptor, 6.18.

As for `CC(C)(C)c1ccc(N(Cc2ccc(C(=O)NC[C@@H](O)C(=O)O)cc2)C(=O)Nc2ccc3c(c2)C(F)(F)OC(F)(F)O3)cc1` [Example 44, (R)-3-{4-[1-(4-tert-Butylphenyl)-3-(2,2,4,4-tetrafluoro-4H-benzo[1,3]dioxin-6-yl)ureidomethyl]benzoylamino}-2-hydroxypropionic acid], the negative logarithm of the IC50 (pIC50) was 7.41 at human glucagon receptor and 6.54 at human GIP receptor.

In the case of `O=C(NC[C@@H](O)C(=O)O)c1ccc(CN(CC(c2ccccc2)c2ccccc2)C(=O)c2cc3cc(OC(F)(F)F)ccc3[nH]2)cc1` [Example 62, (R)-3-(4-{[(2,2-Diphenylethyl)-(5-trifluoromethoxy-1H-indole-2-carbonyl)amino]methyl}-benzoylamino)-2-hydroxypropionic acid], the pIC50 on human glucagon receptor was 6.12; on human GIP receptor, under 5.52.

As for `O=C(NC[C@@H](O)C(=O)O)c1ccc(CN(C(=O)Nc2cc(Br)cc(C(F)(F)F)c2)c2ccc(C3=CCCCC3)cc2)cc1` [Example 9, (R)-3-{4-[3-(3-Bromo-5-trifluoromethylphenyl)-1-(4-cyclohex-1-enylphenyl)ureidomethyl]benzoylamino}-2-hydroxypropionic acid], the negative logarithm of the IC50 (pIC50) at human glucagon receptor is 7.96; at human GIP receptor, 6.55.

For the molecule `CS(=O)(=O)c1cc(NC(=O)N(Cc2ccc(C(=O)NC[C@@H](O)C(=O)O)cc2)c2ccc(C3=CCCCC3)cc2)ccc1OC(F)(F)F` [Example 25, (R)-3-{4-[1-(4-Cyclohexen-1-ylphenyl)-3-(3-methanesulfonyl-4-trifluoromethoxyphenyl)ureidomethyl]benzoylamino}-2-hydroxypropionic acid], the values for the pIC50 at human glucagon receptor and on human GIP receptor were 8.00 and 6.33, respectively.

As for `O=C(NC[C@@H](O)C(=O)O)c1ccc(CN(C(=O)Nc2cc(Cl)cc(Cl)c2)c2ccc(C3CCCCC3)cc2)cc1` [Example 27, (R)-3-{4-[1-(4-Cyclohexylphenyl)-3-(3,5-dichlorophenyl)ureidomethyl]benzoylamino}-2-hydroxypropionic Acid], the pIC50 is 8.01 at human glucagon receptor and 6.59 at human GIP receptor.

As for `O=C(NC[C@@H](O)C(=O)O)c1ccc(CN(C(=O)Nc2ccc(OC(F)(F)F)c(CO)c2)c2ccc(C3CCCCC3)cc2)cc1` [Example 39, (R)-3-{4-[1-(4-Cyclohexylphenyl)-3-(3-hydroxymethyl-4-trifluoromethoxyphenyl)ureidomethyl]-benzoylamino}-2-hydroxypropionic Acid], the negative logarithm of the IC50 (pIC50) on human glucagon receptor was 7.74; on human GIP receptor, 6.45.

As to `CC(=O)c1ccc(NC(=O)N(Cc2ccc(C(=O)NC[C@@H](O)C(=O)O)cc2)c2ccc(C3CCCCC3)cc2)cc1` [Example 53, (R)-3-{4-[3-(4-Acetylphenyl)-1-(4-cyclohexylphenyl)ureidomethyl]benzoylamino}-2-hydroxypropionic acid], the negative-log IC50 (pIC50) on human glucagon receptor is 6.41; on human GIP receptor, under 5.52.

On to `CC(C)(C)C1CCC(N(Cc2ccc(C(=O)NC[C@@H](O)C(=O)O)cc2)C(=O)Nc2ccc3c(c2)C(F)(F)OC(F)(F)O3)CC1` (stereo partly drawn) [Example 45, (R)-3-{4-[1-(4-tert-Butylcyclohexyl)-3-(2,2,4,4-tetrafluoro-4H-benzo[1,3]dioxin-6-yl)ureidomethyl]benzoylamino}-2-hydroxypropionic acid], for which the negative-log IC50 (pIC50) is 7.21 on human glucagon receptor and 6.43 on human GIP receptor.

`CC(C)(C)C1CCC(N(Cc2ccc(C(=O)NC[C@@H](O)C(=O)O)cc2)C(=O)Nc2ccc(Cl)c(Cl)c2)CC1` (stereo partly drawn) [Example 41, (R)-3-{4-[1-(4-tert-Butylcyclohexyl)-3-(3,4-dichlorophenyl)ureidomethyl]benzoylamino}-2-hydroxypropionic acid]: the figures for the pIC50 on human glucagon receptor and on human GIP receptor were 6.88 and 5.80, respectively.

In the case of `O=C(NC[C@@H](O)C(=O)O)c1ccc(CN(C(=O)Cc2cc(C(F)(F)F)cc(C(F)(F)F)c2)c2ccc(C3CCCCC3)cc2)cc1` [Example 66, (R)-3-(4-{([(3,5-Bis(trifluoromethyl)phenyl)acetyl]-(4-cyclohexylphenyl)amino)methyl}benzoylamino)-2-hydroxypropionic acid], the pIC50 on human glucagon receptor is 6.49; on human GIP receptor, under 5.52.
